Experiment [1] concerns the target T1, THR-α ligand-binding domain (H6-THR-α) (Homo sapiens, UniProt P10827).
T1 construct: made in house; host or cells: Escherichia coli BL21 (DE3), vector pET28a
T1 sequence (P10827 148-410 isoform P10827-2 limits assumed): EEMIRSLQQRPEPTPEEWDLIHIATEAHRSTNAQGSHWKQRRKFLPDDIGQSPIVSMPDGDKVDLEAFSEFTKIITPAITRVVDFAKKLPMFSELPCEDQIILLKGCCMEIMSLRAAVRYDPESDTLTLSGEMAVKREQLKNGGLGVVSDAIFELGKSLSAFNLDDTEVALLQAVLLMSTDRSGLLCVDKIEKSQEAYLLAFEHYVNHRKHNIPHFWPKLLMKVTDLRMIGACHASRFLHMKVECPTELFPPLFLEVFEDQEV
T1 sequence (P19793 225-462 partner limits assumed): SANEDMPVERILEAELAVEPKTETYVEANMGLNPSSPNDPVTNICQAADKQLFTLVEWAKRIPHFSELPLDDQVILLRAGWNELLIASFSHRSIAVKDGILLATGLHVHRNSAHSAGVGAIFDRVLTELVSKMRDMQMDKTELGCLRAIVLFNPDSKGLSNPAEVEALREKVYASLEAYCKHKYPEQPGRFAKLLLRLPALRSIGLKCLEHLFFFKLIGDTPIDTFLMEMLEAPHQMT
T1 sequence (Q15596 679-703 partner limits assumed): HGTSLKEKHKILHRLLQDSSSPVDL
The experiment can be described thus: Co-activated peptide recruitment test of THR-α/RXR/GRIP1 (TR_LBD agonist detection, HTRF). Format: biochemical. How it is done:
(§1) A ligand binding domain of THR-β (amino acids 148-410) (H6-THR-β) and a ligand binding domain of THR-α (amino acids 202-461) (H6-TRα) were cloned into E. coli expression vector pET28a (Novagen, Milwaukee, Wis.) containing N-terminal six His sequences. The resulting recombinant six-His-tagged protein was produced in E. coli BL21(DE3) cells. The cells were grown in Terrific Broth (self-used self-prepared Bacto tryptone (3.3%, w/v), Difico yeast extract (2.0%, w/v) and NaCl (0.5%, w/v) medium), incubated at 25° C. for 24 hours using a shake flask in 0.2 mM IPTG, harvested or dissolved with 5 volumes of buffer A (0.05 M Tris, 0.3 M NaCl, 1% W/V betaine, 0.01 M imidazole, 0.02 M b-mercaptoethanol, pH 8.0). Lysozyme (1.0 mg/ml, Sigma) and CompleteProtease Inhibitor Cocktail (Roche Diagnostics Gmbh) were added to the slurry and the solution was sonicated for one minute and 5 times at 4° C. The suspension was centrifuged at 127,300 RCF for 2 hours in a Ti45 Beckmann rotor and the supernatant was loaded onto an NI NTAAgarose (Quigen 30210) column. After washing with the buffer A, […] or H6-THR-α was eluted with the buffer A containing 0.25 M imidazole.
(§2) 30 microliters of H6-THR-β (50 nM) or H6-THR-α in 50 mM Hepes, pH 7.0, 1 mM DTT, 0.05% NP40 and 0.2 mg/ml BSA (binding buffer) were mixed with an equal volume of EE-RxRα (50 nM) in the binding buffer. […] Aliquot ([…]) was transferred to a 384-well black microtiter plate. HTRF signal was read on a Victor5 reader (PerkinElmer Life and Analytical Sciences). EC50 was calculated.
(§3) Gene clones expressing a ligand-binding domain (amino acids 148-410) of THR-β (H6-THR-β) and a ligand-binding domain (amino acids 202-461) of THR-α (H6-THR-α) were inserted into an Escherichia coli expression vector pET28a, and the expression vector contained one N-terminal 6-His sequence. The expression vector was introduced into an Escherichia coli BL21 (DE3) strain to produce a recombinant protein with a His tag. […] After finishing culturing, a bacterium in culture was collected, and the collected bacterium was resuspended with a lysis solution (0.05 M Tris, 0.3 M NaCl, 1% W/V betaine, 0.01 M imidazole, 0.02 M β-mercaptoethanol, and pH 8.0) with a volume 5 times that of the bacterium, and lysozyme and protease inhibitors were added at the same time, the treated bacteria was subjected to ultrasonic lysis (5 times per minute) in ice bath (4° C.). A lysed suspension was centrifuged at 127300 RCF for 2 hours, a supernatant was loaded on a NI_NTA agarose (Quigen 30210) column, and after washing with a buffer A, an H6-TRβ or H6-TRα protein was eluted with the buffer A containing 0.25 M imidazole.
(§4) A human retinol X receptor (amino acid 225-462) (RxRα) was subjected to engineering modification, so that an N-terminal of the human retinol X receptor had His6 and EE(EFMPME) tags, and then the human retinol X receptor was cloned into a pACYC vector, and produced a His6 EEtagged protein in Escherichia coli. IPTG with a final concentration of 0.1 mM was added into the culture medium for induction, and cultured in a shaking flask at 18° C. for 18 hours. After finishing culturing, a bacterium in culture was collected, and the collected bacterium was re-suspended with a lysis solution (0.05 M Tris, 0.3 M NaCl, 1% W/V betaine, 0.01 M imidazole, 0.02 β-mercaptoethanol, and pH 8.0) with a volume 5 times that of the bacterium, lysozyme and protease inhibitors were added at the same time, and stirred at 4° C. for 30 minutes. Then, a suspension was subjected to an ultrasonic treatment at 4° C. for 30 seconds for 5 times. The suspension was collected, and centrifuged at 12000 RCF for 20 minutes. A supernatant was collected, and the supernatant was filtered with a membrane with a pore size of 0.45 μm, and then added with 0.5% NP-40.
Background: Time-resolved FRET reads energy transfer from a long-lived donor to a nearby acceptor.

Experiment [2] has as its target T2, THR-β ligand-binding domain (H6-THR-β) (Homo sapiens, UniProt P10828).
T2 construct: made in house; host or cells: Escherichia coli BL21 (DE3), vector pET28a
T2 sequence (P10828 217-461 limits assumed): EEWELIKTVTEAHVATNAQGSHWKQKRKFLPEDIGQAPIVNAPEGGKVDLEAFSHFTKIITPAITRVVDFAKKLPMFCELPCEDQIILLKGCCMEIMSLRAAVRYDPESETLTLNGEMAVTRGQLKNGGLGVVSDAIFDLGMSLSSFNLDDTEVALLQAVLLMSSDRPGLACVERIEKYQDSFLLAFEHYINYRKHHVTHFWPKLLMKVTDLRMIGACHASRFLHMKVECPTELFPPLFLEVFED
T2 sequence (P19793 225-462 partner limits assumed): T1 sequence (P19793 225-462 partner limits assumed)
T2 sequence (Q15596 679-703 partner limits assumed): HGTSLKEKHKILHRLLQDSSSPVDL
The experiment can be described thus: Co-activated peptide recruitment test of THR-β/RXR/GRIP1 (TR_LBD agonist detection, HTRF). Format: biochemical. How it is done:
as §1, §2, §3, §4

In experiment [3] the test system is TR alpha-UAS-bla HEK 293T Cells. In words: TR cell-based agonist detection, β-lactamase reporter (LiveBLAzer FRET B/G), TR alpha. The conditions noted are these: Homo sapiens; for Emax: HEK-293T, 24 h, TR_cell-based agonist, TR_α, read-out: Maximum activity ratio; for EC50: Detection of TR_cell-based agonist, HEK 293T-TR alpha, 24 hours, read-out: TR_α_EC50. Here is the method:
(§5) A method for testing a THR-α/β activation activity of a compound by an in-vitro cell level was as follows.
(§6) Compounds were transferred to a 384-well plate by an ECHO liquid workstation, and each compound was diluted by 3 times with 10 gradient concentrations, which was in triplicate. 1.5×10^4 DMEM-cultured cells (TR beta-UAS-bla HEK 293T Cells) or 1.0×10^4 TR alpha-UAS-bla HEK 293T Cells were placed in the 384-well plate. HEK 293T-TR beta was incubated in an incubator for 16 hours, and HEK 293T-TR alpha was incubated in an incubator for 24 hours. A LiveBLAzer™-FRET B/G (CCF4-AM) substrate was added into the cell plate to detect expression of β-lactamase in cells, and under excitation of 409 nm, a product produced fluorescence with a wavelength of 447 nm. When the β-lactamase was not expressed, under excitation of 409 nm, fluorescence with a wavelength of 520 nm was directly produced through FRET. Combination between the compound and the protein was determined by detecting a ratio of the two kinds of fluorescence (blue/green, 460 nm/530 nm), thus calculating EC50 of the compound. […] Calculation of a factor Z (greater than 0.5) would be used for monitoring a stability of each experiment.

Experiment [4] has as its system TR beta-UAS-bla HEK 293T Cells. The experiment can be described thus: TR cell-based agonist detection, β-lactamase reporter (LiveBLAzer FRET B/G), TR beta. The conditions noted are these: for Emax / EC50: Homo sapiens; for Emax: HEK-293T, 16 h, TR_β, read-out: Maximum activity ratio (A460/A530); for EC50: Detection of TR_cell-based agonist, HEK 293T-TR beta, 16 hours, read-out: TR_β_EC50. How it is done: as §5, §6

The test system of experiment [5] is golden hamsters fed with high-fat feedstuffs (hyperlipidemia model). In words: In-vivo pharmacodynamic test, high-fat feed hyperlipidemia model. The conditions noted are these: oral once per day, 4 weeks. How it is done:
Administration mode: oral administration was carried out once per day with a time interval of 24 hours for 4 consecutive weeks. During the experiment, the animals were weighed twice per week, and a remaining amount and an adding amount of the feedstuffs were recorded before each blood sampling detection for calculating a food intake of each group of animals during administration.
The food utilization rate represents a weight gain in gram of an animal taking per 100 g of feedstuffs, so that food utilization rate=weight gain (g)/food intake (100 g)×100%.

`Cn1c(CCc2ccccc2)nc2cc(Oc3c(Cl)cc(-n4nc(C#N)c(=O)[nH]c4=O)cc3Cl)ccc21` [Compound 9, 2-(3,5-dichloro-4-((1-methyl-2-phenethyl-1H-benzo[d]imidazol-5-yl)oxy)phenyl)-3,5-dioxo-2,3,4,5-tetrahydro-1,2,4-triazine-6-carbonitrile]: the EC50 in experiment [1] (Detection of TR_LBD agonist, read-out: TR_α_EC50) was greater than 5000 nM; in experiment [2] (Detection of TR_LBD agonist, read-out: TR_beta_EC50), 14.8 nM; in experiment [3], greater than 20000 nM; in experiment [4], greater than 20000 nM. The “Maximum activity ratio (A520/A495)” value is recorded as 1.39 in experiment [1] (TR_LBD agonist, TR_α) and 1.84 in experiment [2] (TR_LBD agonist, TR_β). Besides, the “Measurement of cpd/T3 (maximum ratio)” value in experiment [2] (TR_LBD agonist, TR_β, maximum relative to T3) is 33.6%. Also, in experiment [2] (TR_LBD agonist, ratio TR_α EC50 / TR_β EC50), the α/β is recorded as greater than 337.84. Further, the Emax in experiment [3] was 31%; in experiment [4] (TR_cell-based agonist), 20.4%.

`CC(C)c1cc(Oc2c(Cl)cc(-n3nc(C#N)c(=O)[nH]c3=O)cc2Cl)n[nH]c1=O` [MGL3196, reference compound]: the Emax is 134% in experiment [3] and 37.7% in experiment [4] (TR_cell-based agonist). Also, the EC50 in experiment [3] amounted to 2770 nM; in experiment [4], 1050 nM. Further, the α/β in experiment [4] (TR_cell-based agonist, ratio TR_α EC50 / TR_β EC50) is reported as 2.62. In addition, the “food utilization rate (weight gain (g)/food intake (100 g)×100%)” value in experiment [5] was “increased to some extent”.
